Source: ChEMBL document CHEMBL1146469, “Tasnemoxides A-C, new cytotoxic cyclic norsesterterpene peroxides from the Red Sea sponge Diacarnus erythraenus” (J Nat Prod, 2004)

test system: P388; assay: Cytotoxicity against mouse P388 cells by dilution assay; type: functional, cell-based

SMILES | IC50 [µg/mL]
CC1=C(CCC(C)(O)/C=C/C[C@@]2(C)CC[C@H]([C@H](C)C(=O)O)OO2)C(C)(C)CCC1 (some centres undefined) [TASNEMOXIDE A] | > 1
C=C(CCC1=C(C)CCCC1(C)C)C(O)CC[C@@]1(C)CC[C@H]([C@H](C)C(=O)O)OO1 (some centres undefined) [TASNEMOXIDE B] | > 1
C=C(CCC[C@@]1(C)CC[C@H]([C@H](C)C(=O)OC)OO1)CCC1(O)C(=C)CCCC1(C)C (some centres undefined) [TASNEMOXIDE C] | > 1

test system: A549; assay: Cytotoxicity against human A549 cells by dilution assay; type: functional, cell-based

SMILES | IC50 [µg/mL]
CC1=C(CCC(C)(O)/C=C/C[C@@]2(C)CC[C@H]([C@H](C)C(=O)O)OO2)C(C)(C)CCC1 (some centres undefined) [TASNEMOXIDE A] | > 1
C=C(CCC1=C(C)CCCC1(C)C)C(O)CC[C@@]1(C)CC[C@H]([C@H](C)C(=O)O)OO1 (some centres undefined) [TASNEMOXIDE B] | > 1
C=C(CCC[C@@]1(C)CC[C@H]([C@H](C)C(=O)OC)OO1)CCC1(O)C(=C)CCCC1(C)C (some centres undefined) [TASNEMOXIDE C] | > 1

test system: HT-29; assay: Cytotoxicity against human HT-29 cells by dilution assay; type: functional, cell-based

SMILES | IC50 [µg/mL]
CC1=C(CCC(C)(O)/C=C/C[C@@]2(C)CC[C@H]([C@H](C)C(=O)O)OO2)C(C)(C)CCC1 (some centres undefined) [TASNEMOXIDE A] | > 1
C=C(CCC1=C(C)CCCC1(C)C)C(O)CC[C@@]1(C)CC[C@H]([C@H](C)C(=O)O)OO1 (some centres undefined) [TASNEMOXIDE B] | > 1
C=C(CCC[C@@]1(C)CC[C@H]([C@H](C)C(=O)OC)OO1)CCC1(O)C(=C)CCCC1(C)C (some centres undefined) [TASNEMOXIDE C] | > 1
